Data on 30 molecules can be found in US6855730B2, “3-methylidenyl-2-indolinone modulators of protein kinase” (Sugen, Inc., priority 1998, dated 2005).

The target of assay [1] is EGFR (Homo sapiens, UniProt P00533). The assay is described as follows: EGFR assay (cellular ELISA, NIH 3T3/C7 cells). To be noted: read-out: cell EGF IC50. Also noted: expressed in transfected cells; host or cells: NIH 3T3/C7. The assay is classed as cell-based. In outline: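 NIH 3T3/C7 cells expressing human EGFR, serum-starved (0.5% serum) ~40 h, treated with compound (1:200 of 10 mg/ml DMSO stock, 1% DMSO) then stimulated 5 min with 25 nM EGF. Lysate EGFR captured by antibody and phosphotyrosine detected by anti-Ptyr ELISA (OD 410 nm); % inhibition after negative-control subtraction.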

For assay [2], the target named is pyk2 (Homo sapiens, UniProt Q14289). The assay is described as follows: bio pyk2 assay. The assay is classed as biochemical.
For assay [3], the target named is T1, 3T3 cell line genetically engineered to express human PDGF-R (Homo sapiens, UniProt P09619).
T1 construct: expressed in transfected cells; host or cells: 3T3
The assay is described as follows: PDGF-induced BrdU incorporation assay. The assay is classed as cell-based. To be noted: read-out: PDGF-Induced BrdU Incorp. IC50. (In general: Incorporation of labelled thymidine or its analogues reports DNA synthesis.)
Procedure: The general procedure is as follows: a compound is introduced to cells expressing the test kinase, either naturally or recombinantly, for a selected period of time after which, if the test kinase is a receptor, a ligand known to activate the receptor is added. […] The cellular/biologic assays described herein measure the amount of DNA made in response to activation of a test kinase, which is a general measure of a proliferative response. The general procedure for this assay is as follows: a compound is introduced to cells expressing the test kinase, either naturally or recombinantly, for a selected period of time after which, if the test kinase is a receptor, a ligand known to activate the receptor is added. After incubation at least overnight, a DNA labeling reagent such as Bromodeoxyuridine (BrdU) or 3H-thymidine is added. The amount of labeled DNA is detected with either an anti-BrdU antibody or by measuring radioactivity and is compared to control cells not contacted with a test compound.
PDGF-Induced BrdU Incorporation Assay
Protocol • (1) Cells are seeded at 8000 cells/well in DMEM, 10% CS, 2mM Gln in a 96 well plate. […] The negative control wells receive serum free DMEM with 0.1% BSA only, the positive control cells receive the ligand (PDGF) but no test compound. […] FixDenat solution is added (50 μ/well) and the plates are incubated at room temperature for 45 minutes on a plate shaker. • (6) The FixDenat solution is thoroughly removed by decanting and tapping the inverted plate on a paper towel. Milk is added (5% dehydrated milk in PBS, 200 μ/well) as a blocking solution and the plate is incubated for 30 minutes at room temperature on a plate shaker. • (7) The blocking solution is removed by decanting and the wells are washed once with PBS. Anti-BrdU-POD solution (1:100 dilution in PBS, 1% BSA) is added (100 μl/well) and the plate is incubated for 90 minutes at room temperature on a plate shaker. • (8) The antibody conjugate is thoroughly removed by decanting and rinsing the wells 5 times with PBS, and the plate is dried by inverting and tapping on a paper towel. • (9) TMB substrate solution is added (100 μl/well) and incubated for 20 minutes at room temperature on a plate shaker until color development is sufficient for photometric detection. • (10) The absorbance of the samples are measured at 410 nm (in “dual wavelength” mode with a filter reading at 490 nm, as a reference wavelength) on a Dynatech ELISA plate reader.

In assay [4] the target is T2, src protein kinase (Gallus gallus, UniProt P00523).
T2 construct: host or cells: Schizosaccharomyces pombe SP200
The assay is described as follows: Biochemical SRC assay (phosphorylation of biotinylated peptide). As to conditions: read-out: bio src IC50.
Procedure: This assay is used to determine src protein kinase activity measuring phosphorylation of a biotinylated peptide as the readout.
Yeast transformed with src (Sugen, Inc., Redwood City, Calif.). • b. Cell lysates: Yeast cells expressing src are pelleted, washed once with water, re-pelleted and stored at −80° C. until use. • c. N-terminus biotinylated [sequence] is prepared by standard procedures well known to those skilled in the art. • d. DMSO: Sigma, St. Louis, Mo. • e. […] Vecastain ELITE ABC reagent: Vector, Burlingame, Calif. • h. […] S. Pombe strain SP200 (h-s leul.32 ura4 ade210) is grown as described and transformations are pRSP expression plasmids are done by the lithium acetate method (Superti-Furga, supra). Cells are grown in the presence of 1 μM thiamine to repress expression from the nmtl promoter or in the absence of thiamine to induce expression. • i. […] Turbo TMB-ELISA peroxidase substrate: Pierce Chemical.
Buffer Solutions • a. PBS (Dulbecco's Phosphate-Buffered Saline): GIBCO PBS, GIBCO Cat. #450-1300EB. • b. Blocking Buffer: 5% Non-fat milk (Carnation) in PBS. • c. Carbonate Buffer: Na2CO4 from Fischer, Cat. # S495, make up 100 mM stock solution. • d. Kinase Buffer: 1.0 ml (from 1M stock solution) MgCl2, 0.2 ml (from a 1M stock solution) MnCl2, 0.2 ml (from a 1M stock solution) DTT, 5.0 ml (from a 1M stock solution) HEPES, 0.1 ml TX-100, bring to 10 ml total volume with MilliQ H2O. • e. […] NaCl: Fischer Cat. # S271-10, Make up 5M stock solution with MilliQ H2O. • i. […] MgCl2: Fischer Cat. # M33-500, make up 1M stock solution with MilliQ H2O. • k. […] MnCl2: Fischer Cat. # M87-100, make up 1M stock solution with MilliQ H2O. • n. DTT: -Fischer Cat. # BP172-5. • o. […] Kinase Reaction Mixture: Amount per assay plate (100 wells): 1.0 ml Kinase Buffer, 200 λg GST-ζ, bring to final volume of 8.0 ml with MilliQ H2O. • q. […] Then add 1 drop of reagent B. Put tube on orbital shaker at room temperature and mix for 30 minutes.
Preparation of src Coated ELISA Plate. • 1. Coat ELISA plate with 0.5 μg/well anti-src mab in 100 μl of pH 9.6 sodium carbonate buffer, hold at 40° C. overnight. • 2. Wash wells once with PBS. • 3. […] Wash plate 5× with PBS. • 5. Add 10 μg/well of src transformed yeast lysates diluted in Lysis Buffer (0.1 ml total volume per well). (Amount of lysate may vary between batches.) Shake plate for 20 minutes at room temperature.
Preparation of Phosphotyrosine Antibody-coated ELISA Plate. • 1. 4G10 plate: coat 0.5 μg/well 4G10 in 100 μl PBS overnight at 4° C. and block with 150 μl of 5% milk in PBS for 30 minutes at room temperature.
Kinase Assay Procedure. • 1. Remove unbound proteins from plates and wash plates 5× with PBS. • 2. […] Wash plate 5× with TBST. • 10. Incubate with Vectastain ELITE ABC reagent (100 μl/well) for 30 min. at room temperature. • 11. Wash the wells 5× with TBST. • 12. Develop with Turbo TMB.

Sequence of EGFR (P00533 25-1210): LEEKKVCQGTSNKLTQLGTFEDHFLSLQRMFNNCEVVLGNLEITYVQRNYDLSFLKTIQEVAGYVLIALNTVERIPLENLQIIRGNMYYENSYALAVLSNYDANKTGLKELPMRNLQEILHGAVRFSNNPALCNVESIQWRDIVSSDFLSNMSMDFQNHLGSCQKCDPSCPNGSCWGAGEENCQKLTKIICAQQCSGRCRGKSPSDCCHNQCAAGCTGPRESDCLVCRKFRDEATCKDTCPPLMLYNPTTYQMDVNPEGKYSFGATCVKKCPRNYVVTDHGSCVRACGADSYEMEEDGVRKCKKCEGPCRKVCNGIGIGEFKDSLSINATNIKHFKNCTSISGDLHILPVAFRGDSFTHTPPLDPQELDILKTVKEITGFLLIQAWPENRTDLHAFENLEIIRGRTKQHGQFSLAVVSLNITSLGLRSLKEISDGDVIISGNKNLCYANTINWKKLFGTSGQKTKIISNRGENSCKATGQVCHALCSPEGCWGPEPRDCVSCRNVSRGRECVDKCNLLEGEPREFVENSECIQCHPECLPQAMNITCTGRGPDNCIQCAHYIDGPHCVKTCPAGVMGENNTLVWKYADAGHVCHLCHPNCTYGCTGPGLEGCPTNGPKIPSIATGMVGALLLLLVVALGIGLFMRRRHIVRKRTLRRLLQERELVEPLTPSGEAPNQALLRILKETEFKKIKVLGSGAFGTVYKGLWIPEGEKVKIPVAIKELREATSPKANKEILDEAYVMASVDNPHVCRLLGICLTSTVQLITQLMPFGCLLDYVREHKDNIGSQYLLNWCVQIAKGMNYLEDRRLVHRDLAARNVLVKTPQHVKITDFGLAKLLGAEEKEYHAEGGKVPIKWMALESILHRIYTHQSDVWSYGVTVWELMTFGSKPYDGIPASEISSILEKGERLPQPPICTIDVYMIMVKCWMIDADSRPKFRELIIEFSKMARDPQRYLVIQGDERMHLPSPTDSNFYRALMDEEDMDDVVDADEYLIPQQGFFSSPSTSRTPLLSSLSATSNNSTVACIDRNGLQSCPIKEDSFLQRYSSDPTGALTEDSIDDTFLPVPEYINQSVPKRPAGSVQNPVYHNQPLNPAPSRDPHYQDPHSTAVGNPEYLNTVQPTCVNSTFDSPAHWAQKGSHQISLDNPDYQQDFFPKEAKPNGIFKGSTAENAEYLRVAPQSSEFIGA
Sequence of pyk2 (Q14289 whole entry, species assumed): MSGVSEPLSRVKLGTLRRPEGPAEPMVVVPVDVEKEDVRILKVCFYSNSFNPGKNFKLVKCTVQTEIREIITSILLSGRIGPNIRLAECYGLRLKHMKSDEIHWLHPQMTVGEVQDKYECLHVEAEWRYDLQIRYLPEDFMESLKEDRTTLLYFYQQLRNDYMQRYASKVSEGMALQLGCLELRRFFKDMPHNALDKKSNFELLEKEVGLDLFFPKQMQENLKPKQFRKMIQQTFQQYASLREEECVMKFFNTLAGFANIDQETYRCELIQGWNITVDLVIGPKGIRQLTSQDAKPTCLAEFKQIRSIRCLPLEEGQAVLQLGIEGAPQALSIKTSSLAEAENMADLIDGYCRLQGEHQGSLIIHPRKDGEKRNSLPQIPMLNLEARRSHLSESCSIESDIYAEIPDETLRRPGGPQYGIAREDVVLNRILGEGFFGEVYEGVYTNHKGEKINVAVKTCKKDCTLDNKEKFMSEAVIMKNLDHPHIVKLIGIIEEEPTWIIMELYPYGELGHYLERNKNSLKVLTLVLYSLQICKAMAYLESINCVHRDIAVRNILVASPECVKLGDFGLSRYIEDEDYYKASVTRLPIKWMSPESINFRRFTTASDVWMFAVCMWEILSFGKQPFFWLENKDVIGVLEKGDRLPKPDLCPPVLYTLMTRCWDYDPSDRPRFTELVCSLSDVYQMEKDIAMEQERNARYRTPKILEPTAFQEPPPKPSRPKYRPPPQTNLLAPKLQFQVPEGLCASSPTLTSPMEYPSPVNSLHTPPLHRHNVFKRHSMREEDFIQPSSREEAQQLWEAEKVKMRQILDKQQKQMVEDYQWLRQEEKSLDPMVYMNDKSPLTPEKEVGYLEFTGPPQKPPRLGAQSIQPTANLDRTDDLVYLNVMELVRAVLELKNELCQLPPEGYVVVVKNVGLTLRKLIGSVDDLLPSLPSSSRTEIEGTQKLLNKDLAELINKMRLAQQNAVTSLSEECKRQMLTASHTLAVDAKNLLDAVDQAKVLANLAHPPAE

By IC50 is commonly meant the concentration at which inhibition is half-maximal. For `CCOC(=O)c1c(C)[nH]c(/C=C2\C(=O)Nc3ccc(Br)cc32)c1CCC(=O)O` [Compound 114, 5-(5-Bromo-2-oxo-1,2-dihydroindol-3-ylidenemethyl)-4-(2-carboxyethyl)-2-methyl-1H-pyrrole-3-carboxylic acid ethyl ester], the IC50 in assay [1] was above 100 µM.

Turning to `Cc1cc(CCC(=O)O)c(/C=C2\C(=O)Nc3ccc(Br)cc32)[nH]1` [Compound 116, 3-[2-(5-Bromo-2-oxo-1,2-dihydroindol-3-ylidenemethyl)-5-methyl-1H-pyrrol-3-yl]-propionic acid], in assay [1], the IC50 was above 100 µM. Still for that read-out and setting: in the case of `COc1c(C(C)C)cc(/C=C2/C(=O)Nc3ccccc32)cc1C(C)C` [Example 1, 3-(3,5-Diisopropyl-4-methoxybenzylidene)-1,3-dihydroindol-2-one] it was 45.7 µM; in that of `COc1c(C(C)C)cc(/C=C2/C(=O)Nc3ccc(Cl)cc32)cc1C(C)C` [Example 2, 5-Chloro-3-(3,5-diisopropyl-4-methoxybenzylidene)-1,3-dihydroindol-2-one], above 100 µM; in that of `O=C1Nc2ccc(N=Cc3cc4ccccc4[nH]3)cc2C1=Cc1cc2ccccc2[nH]1` [Example 171, 3-(1H-indol-2-ylmethylene)-5-[(1H-indol-2-ylmethylene)-amino]-1,3-dihydroindol-2-one], above 100 µM. Consider `NS(=O)(=O)c1ccc2c(c1)/C(=C/c1c[nH]c3ccccc13)C(=O)N2` [Example 172, 3-(1H-Indol-3-ylmethylene)-2-oxo-2,3-dihydro-1H-indole-5-sulfonic acid amide], for which the half-maximal inhibitory concentration (IC50) was above 100 µM in assay [1] and 14.8 µM in assay [2]. As to `CNS(=O)(=O)c1ccc2c(c1)/C(=C/c1cc3ccccc3[nH]1)C(=O)N2` [Example 173, 3-(1H-Indol-2-ylmethylene)-2-oxo-2,3-dihydro-1H-indole-5-sulfonic acid methylamide], the IC50 in assay [1] is above 100 µM; in assay [2], 9.8 µM. `O=C1Nc2ccc(C(=O)O)cc2/C1=C/c1c[nH]c2ccccc12` [Example 174, 3-(1H-Indol-3-ylmethylene)-2-oxo-2,3-dihydro-1H-indole-5-carboxylic acid]: the IC50 in assay [1] is above 100 µM; in assay [2], 2.57 µM.

As for `O=C1Nc2ccc(C(=O)O)cc2/C1=C/c1ccc2[nH]ccc2c1` [Example 177, 3-(1H-Indol-5-ylmethylene)-2-oxo-2,3-dihydro-1H-indole-5-carboxylic acid], the IC50 in assay [1] and in assay [2] was above 100 µM in each case.

As to `Nc1ccc2c(c1)/C(=C/c1ccc3[nH]ccc3c1)C(=O)N2` [Example 179, 5-Amino-3-(1H-indol-5-ylmethylene)-1,3-dihydro-indol-2-one], the IC50 in assay [1] and in assay [2] was above 100 µM in each case. With `Cc1c(/C=C2\C(=O)Nc3ccc(N)cc32)[nH]c2ccccc12` [Example 180, 5-Amino-3-(3-methyl-1H-indol-2-ylmethylene)-1,3-dihydroindol-2-one], the IC50 was above 100 µM in assay [1] and below 0.78 µM in assay [2].

Take `Cc1[nH]c2ccccc2c1/C=C1\C(=O)Nc2ccc(C(=O)O)cc21` [Example 182, 3-(2-Methyl-1H-indol-3-ylmethylene)-2-oxo-2,3-dihydro-1H-indole-5-carboxylic acid]: the IC50 in assay [1] is above 100 µM; in assay [2], 37.1 µM. Regarding `Cc1[nH]c2ccccc2c1/C=C1\C(=O)Nc2ccc(N)cc21` [Example 187, 5-Amino-3-(2-methyl-1H-indol-3-ylmethylene)-1,3-dihydroindol-2-one], the values for the IC50 in assay [1] and in assay [2] were above 100 µM and 75.8 µM, respectively. On to `O=C(O)CCc1c(/C=C2\C(=O)Nc3ccccc32)[nH]c2c1CCCC2` [Example 190, 3-[2-(2-Oxo-1,2-dihydro-indol-3-ylidenemethyl)-4,5,6,7-tetrahydro-1H-indol-3-yl]-propionic acid], for which the results for the IC50 in assay [3], in assay [4] and in assay [2] were 2.9 µM, 0.11 µM and below 0.78 µM, respectively.

Take `CN(C)C(=O)CCc1c(/C=C2\C(=O)Nc3ccccc32)[nH]c2c1CCCC2` [Example 197, N,N-Dimethyl-3-[2-(2-oxo-1,2-dihydroindol-3-ylidenemethyl)-4,5,6,7-tetrahydro-1H-indol-3-yl]-propionamide]: the IC50 in assay [1] was above 100 µM; in assay [3] it was 4.9 µM; in assay [2], 12 µM. Turning to `NC(=O)CCc1c(/C=C2\C(=O)Nc3ccccc32)[nH]c2c1CCCC2` [Example 199, 3-[2-(2-Oxo-1,2-dihydroindol-3-ylidenemethyl)-4,5,6,7-tetrahydro-1H-indol-3-yl]-propionamide], the IC50 is above 100 µM in assay [1], 3.5 µM in assay [3] and 2.83 µM in assay [2]. With `O=C1Nc2ccccc2/C1=C/c1[nH]c2c(c1CCC(=O)N1CCOCC1)CCCC2` [Example 200, 3-[3-(3-Morpholin-4-yl-3-oxopropyl)-4,5,6,7-tetrahydro-1H-indol-2-ylmethylene]-1,3-dihydroindol-2-one], the IC50 in assay [1] was above 100 µM; in assay [3], 8.6 µM; in assay [2], 5.62 µM. As for `CNC(=O)CCc1c(/C=C2\C(=O)Nc3ccccc32)[nH]c2c1CCCC2` [Example 201, N-Methyl-3-[2-(2-oxo-1,2-dihydroindol-3-ylidenemethyl)-4,5,6,7-tetrahydro-1H-indol-3-yl]-propionamide], the IC50 is above 100 µM in assay [1], 3.9 µM in assay [3] and 6.61 µM in assay [2]. As to `O=C(CCc1c(/C=C2\C(=O)Nc3ccccc32)[nH]c2c1CCCC2)NCCN1CCOCC1` [Example 202, N-(2-Morpholin-4-ylethyl)-3-[2-(2-oxo-1,2-dihydroindol-3-ylidenemethyl)-4,5,6,7-tetrahydro-1H-indol-3-yl]-propionamide], the IC50 in assay [1] is above 100 µM; in assay [3] it was 5.2 µM; in assay [4], above 50 µM. For the molecule `O=C(O)CCc1c(/C=C2\C(=O)Nc3ncccc32)[nH]c2c1CCCC2` [Example 203, 3-[2-(2-Oxo-1,2-dihydropyrrolo[2,3-b]pyridin-3-ylidenemethyl)-4,5,6,7-tetrahydro-1H-indol-3-yl]-propionic acid], in assay [1], the IC50 was above 12.5 µM. For `COc1cccc(-c2ccc3c(c2)NC(=O)/C3=C\c2[nH]c3c(c2CCC(=O)O)CCCC3)c1` [Example 204, 3-{2-[6-(3-Methoxyphenyl)-2-oxo-1,2-dihydro-indol-3-ylidenemethyl]-4,5,6,7-tetrahydro-1H-indol-3-yl}-propionic acid], the IC50 in assay [1] is above 100 µM; in assay [4] it was 4.44 µM. For the molecule `COc1ccc(-c2ccc3c(c2)NC(=O)/C3=C\c2[nH]c3c(c2CCC(=O)O)CCCC3)cc1` [Example 205, 3-{2-[6-(4-Methoxyphenyl)-2-oxo-1,2-dihydro-indol-3-ylidenemethyl]-4,5,6,7-tetrahydro-1H-indol-3-yl}-propionic acid], the IC50 in assay [4] worked out at 1.34 µM. Consider `O=C(O)CCc1c(/C=C2\C(=O)Nc3cc(-c4ccccc4)ccc32)[nH]c2c1CCCC2` [Example 206, 3-[2-(2-oxo-6-phenyl-1,2-dihydroindol-3-ylidenemethyl)-4,5,6,7-tetrahydro-1H-indol-3-yl]-propionic acid], for which the IC50 in assay [4] came out at 0.74 µM. Take `CC(C)NS(=O)(=O)c1ccc2c(c1)C(=Cc1[nH]c3c(c1CCC(=O)O)CCCC3)C(=O)N2` [Example 208, 3-[2-(5-Isopropylaminosulfonyl-2-oxo-1,2-dihydroindol-3-ylidenemethyl)-4,5,6,7-tetrahydro-1H-indol-3-yl]-propionic acid]: the values for the IC50 in assay [1], in assay [4] and in assay [2] were above 100 µM, 1.84 µM and 0.13 µM, respectively. With `O=C(O)CCc1ccccc1/C=C1/C(=O)Nc2ccccc21` [Example 214, 3-[2-(2-Oxo-1,2-dihydroindol-3-ylidenemethyl)-phenyl]-propionic acid], the IC50 in assay [1] and in assay [4] was above 100 µM each time. `Cc1c[nH]c(/C=C2\C(=O)Nc3ccc(Cl)cc32)c1CCC(=O)O` [Example 216, 3-[2-(5-Chloro-2-oxo-1,2-dihydroindol-3-ylidenemethyl)-4-methyl-1H-pyrrol-3-yl]-propionic acid]: the values for the IC50 in assay [1], in assay [4] and in assay [2] were above 100 µM, 4.75 µM and 23.9 µM, respectively. For the molecule `Cc1c[nH]c(/C=C2\C(=O)Nc3cccc(C)c32)c1CCC(=O)O` [Example 218, 3-[2-(4-Methyl-2-oxo-1,2-dihydroindol-3-ylidenemethyl)-4-methyl-1H-pyrrol-3-yl]-propionic acid], the IC50 in assay [3] was found to be 24.8 µM; in assay [2] it was 32.3 µM.

As for `COc1ccc2c(c1)/C(=C/c1[nH]cc(C)c1CCC(=O)O)C(=O)N2` [Example 222, 3-[2-(5-Methoxy-2-oxo-1,2-dihydroindol-3-ylidenemethyl)-4-methyl-1H-pyrrol-3-yl]-propionic acid], the IC50 is above 100 µM in assay [1], above 50 µM in assay [3] and 5.77 µM in assay [4]. For `COc1cccc(-c2ccc3c(c2)NC(=O)/C3=C\c2[nH]cc(C)c2CCC(=O)O)c1` [Example 223, 3-{2-[6-(3-Methoxyphenyl)-2-oxo-1,2-dihydro-indol-3-ylidenemethyl]-4-methyl-1H-pyrrol-3-yl}-propionic acid], the IC50 in assay [4] turned out to be 1.06 µM. On to `CCOc1cccc(-c2ccc3c(c2)NC(=O)/C3=C\c2[nH]cc(C)c2CCC(=O)O)c1` [Example 224, 3-{2-[6-(3-Ethoxyphenyl)-2-oxo-1,2-dihydro-indol-3-ylidenemethyl]-4-methyl-1H-pyrrol-3-yl}-propionic acid], for which, in assay [4], the IC50 was 1.16 µM.
